Results as given in patent US20260234173A1, “STRUCTURED MOLECULAR VECTORS FOR ANTI-INFLAMMATORY COMPOUNDS AND USES THEREOF” (Universite Claude Bernard Lyon 1, priority 2019, published 2026).

Key:
[1] = tested on: hippocampal LTP in healthy rats; test: Hippocampal LTP in slices from healthy rats treated in vivo; parameters: species or system rat; details: 2 mg/kg i.p. each day during 7 days (P21-P27)
Description: At P28-38, Sprague-Dawley rats were anesthetized with isoflurane, the forebrain was removed and placed in ice cold standard artificial cerebrospinal fluid (ACSF), consisting of (in mM): 124 NaCl, 5 KCl, 1.25 Na2HPO4, 2 MgSO4, 2 CaCl2), 26 NaHCO3, supplemented with 10 D-glucose, and bubbled with 95% O2 and 5% CO2. Hippocampal transverse slices were cut into 350 μm thick sections, using a vibratome (Leica VT1000S), and incubated in ACSF at room temperature for at least 1 h, before the transfer to the recording chamber. The ACSF used for perfusion was supplemented with picrotoxin (100 μM; Sigma-Aldrich), to block GABA-A receptors and therefore to facilitate the induction of NMDA receptors-dependent Long-Term Potentiation (LTP). […] Series resistance was continually monitored, and experiments were discarded if it changed by >20%.
Capillary glass pipettes filled with ACSF and connected to an Iso-Flex stimulus isolation unit (A.M.P.I.) were placed in stratum radiatum, to evoke excitatory postsynaptic potentials (EPSPs) in CA1 pyramidal neurons. […] LTP was induced by the theta burst pairing (TBP) protocol, which consisted of EPSPs paired with single back-propagating action potentials (b-APs), timed so that the b-AP (~15 ms delay) occurred at the peak of the EPSPs, as measured in the soma. […]

[2] = tested on: immortalized human microglia (IHM); test: Expression of inflammation markers in immortalized human microglia activated by IL-1β (RT-qPCR); format: cell-based; details: pre-treated with 150 nM and 300 nM 3 hours before IL-1β (3 ng/mL); RNA after 5 hours
Description: Immortalized human microglia (IHM; Innoprot, Derio, Spain) were seeded at 13,000 cells/cm^2 in T75 flasks coated with type I human collagen (10 μL/mL, Coating Matrix Kit, Innoprot). The medium was formulated for optimal growth of human brain-derived microglia in vitro, and contained 1% pen/strep, 1% of microglia growth supplement and 5% fetal bovine serum (Microglial Cell Medium Kit, Innoprot).
IHM were seeded (10,000 cells/cm^2) in type 1 collagen-coated 6-well plates. When cell culture was about 80% confluent, IL-1β (R&D Systems) was added to the culture medium at 0.5 ng/mL, 1.5 ng/mL or 3.0 ng/mL. At t=0, each well received 1 mL of medium only (controls) or 1 mL of medium containing the desired concentration of IL-1β. Cells were harvested at t=0 h, t=3 h, t=8 h and t=24 h. Each tested condition was repeated as triplicates.
The effect of synaptamide phosphonate has been tested as illustrated in FIG. 5. […]
PCR amplification of targeted cDNAs was performed using the Rotor-Gene Q system (Qiagen) and the QuantiTect SYBR Green PCR Kit (Qiagen).
The ScDNA copy number measured after qPCR was used to estimate the RT step yield for each sample, taking into account that the same number of SmRNA copies was initially present in all samples before RT step. This yield made it possible to standardize the values obtained for all the genes of interest measured from the same sample. […]

Structure (SMILES): CCC=CCC=CCC=CCC=CCC=CCC=CCCC(=O)NCCP(=O)(O)O [synaptamide phosphonate]
- LTP magnitude (EPSP amplitude, % of baseline) [1]: 212.11±12.9%
- IL-1β-mediated cytokine and chemokine gene induction [2]: dramatic reduction
